No end group written: not given here.
How the values were obtained:
Human melanocytes = assay: Melanin content measurement in melanocytes; format: cell-based; details: 10 μM (peptide: similar concentration), 7 days
Description: (§1) Primary human melanocytes were kindly obtained from Dr. Todd Ridky in the department of dermatology, Stanford University. Cells were cultured in Medium 254 (Cascade Biologics) supplemented with Human Melanocyte Growth Supplement (HMGS, Cascade Biologics). They were grown in a humidified atmosphere with 5% CO2 at 37° C. Cell plating densities were arranged that those cells were in log phase of growth for the duration of incubation with test samples. Subcultures of cells were plated at a density of 4×10^4 cells/cm^2. Approximately 24 h later, fresh medium and test samples were added. Cells were harvested 7 d after test samples addition, replaced with fresh medium and test samples every two days.
Human melanocytes were cultured in 6-well plates and treated with individual test samples for 7 d. After washes in PBS, cells were detached by short incubation in trypsin/EDTA (0.25%/0.1% in PBS). An aliquot was used for cell count. […] Melanin concentrations were calculated by comparison of the OD at 475 nm of unknown samples with a standard curve obtained with synthetic melanin.
To provide more direct evidence that RA peptide inhibits melanogenesis, its effects on melanin production in melanocytes was studied. The contents of melanin in melanocytes treated with no addition, RA peptide or HQ for 7 days were determined with a spectrophotometer and compared with a melanin standard curve. […]

[1] = tested on: Primary human melanocytes; assay: Melanocyte proliferation rate; format: cell-based; details: up to 10 μM
Description: as §1
To exclude the possibility that the inhibitory effects of RA peptide on melanogenesis might be caused by the inhibition of cell growth, we compared the number of cells grown in the presence and absence of test samples.

[2] = target: T1, cellular tyrosinase activity of melanocytes (Homo sapiens, UniProt P14679); assay: Assay of cellular tyrosinase activity with L-DOPA as substrate; format: cell-based; details: 7 d treatment
T1 construct: Primary human melanocytes were kindly obtained from Dr. Todd Ridky; endogenous in cells; host or cells: primary human melanocytes (passage 3)
T1 sequence (P14679 19-529): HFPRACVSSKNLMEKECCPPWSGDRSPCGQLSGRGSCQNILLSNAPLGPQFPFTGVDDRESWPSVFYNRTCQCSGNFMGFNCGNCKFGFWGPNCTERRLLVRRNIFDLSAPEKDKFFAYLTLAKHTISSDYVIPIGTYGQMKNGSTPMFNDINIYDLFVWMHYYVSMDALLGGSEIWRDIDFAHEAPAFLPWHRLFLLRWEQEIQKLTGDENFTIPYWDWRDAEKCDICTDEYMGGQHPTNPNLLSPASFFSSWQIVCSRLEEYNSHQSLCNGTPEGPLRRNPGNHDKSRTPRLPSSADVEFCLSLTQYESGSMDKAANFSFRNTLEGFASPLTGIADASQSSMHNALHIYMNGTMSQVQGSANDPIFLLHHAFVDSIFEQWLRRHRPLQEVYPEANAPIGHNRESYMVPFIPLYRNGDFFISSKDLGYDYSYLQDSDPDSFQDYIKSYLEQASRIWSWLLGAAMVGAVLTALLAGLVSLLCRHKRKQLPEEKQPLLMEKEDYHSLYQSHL
Description: as §1
Human melanocytes were cultured in 6-well plates. After treatment with individual test samples for 7 d, the cells were washed with phosphate-buffered saline (PBS) and lysed with phosphate buffer, pH 6.8, containing 1% Triton X-100. After sonication, lysates were clarified by centrifugation at 10000 g for 10 min. After determination of protein content with a Bio-Rad protein assay kit, lysates were added to 96 well culture plate containing equal amounts of protein (40 μg), and adjusted with lysis buffer to reach 150 μl in each well. 75 μl of 10 mM L-DOPA dissolved in lysis buffer was added to each well. The culture plate was incubated at 37° C. for 30 min, and then read with the spectrophotometer at 475 nm.
Tyrosinase inhibitory activity was calculated with the following formula: tyrosinase inhibition (%)=[1−(O.D.475 of sample/O.D.475 of control)]×100%.
We also examined the inhibitory action of RA peptide on cellular tyrosinase activity of melanocytes, using L-DOPA as substrate. After centrifugation and protein calculation, certain volume of supernatant for each sample was transferred to 96 well culture plate by compensating a certain protein content in each well, and adjusted the volume of each well to 150 μl with 0.067M of phosphate buffer (pH 6.8). 75 μl of 10 mM L-DOPA dissolved in phosphate buffer (pH 6.8) was added to each well. The culture plate was incubated at 37° C. for 30 min, and then read with the spectrophotometer at 475 nm.

tyrosinase = details: read-out: published IC50; cited from earlier work
[3] = tested on: Primary human melanocytes; format: cell-based; details: 24 h, 100 µM
Description: as §1
Cell viability was determined using WST-1 Cell Proliferation Kit (Roche). Cells were plated at 1×10^5/well (24-well plates). Twenty-four hours after plating, test samples were added and cultures were incubated for an additional 7 d. At the end of the treatment period, 50 μl WST-1 was added to each well. The plates were placed at 37° C. for 4 h in the dark and the absorbance at 450 nm was read using microplate. Usually, 3 replicate wells were measured for each group to be tested. Wells containing medium but no cells served as controls. Cell viability was calculated according to the equation: cell viability=absorbance (sample tested)/absorbance (medium only)×100%. Assay of Cellular Tyrosinase Activity […]

Mushroom tyrosinase [4] = assay: Tyrosinase inhibition at single concentration (melanin synthesis evaluation); format: biochemical; details: for considered effective in these assays: mushroom tyrosinase and B-16 assays, SF 8 mM, PLG 3 mM
Description: Peptides SF, VL, and PLG-OH were tested, along with controls of kojic acid, a known tyrosinase inhibitor, and licorice extracts, a known tyrosinase inhibitor (See J. Agric. Food Chem., 51 (5), 1201-1207, 2003). Tyrosinase inhibition was measured using mushroom tyrosinase (Sigma Aldrich cat # T3824) and L-tyrosine (Sigma Aldrich cat # T8566) in an assay buffer consisting of phosphate buffer (1.0M, pH 6.8) and 5%, and absolute water. The assay buffer, with test sample concentrations and tyrosinase, was incubated in the dark at room temperature for one hour and absorption was read.

[5] = tested on: B16-F10 mouse melanoma cells; assay: Cell viability by MTT assay in B-16 pigmentation assay; format: cell-based
Description: (§2) The B-16 pigmentation assay used B16-F10 mouse melanoma cells (ATCC CRL-6475) grown in DMEM, DMEM without phenol red, FBS, antibiotics, L-glutamine and other standard components. Cells were counted in a Packard Spectracount (microplate spectrophotometer) filtered at 540 nm and 570 nm. The cells were cultured with growth medium and incubated for 24 hrs. at 37° C. and 10% CO2. Cells were treated with 200 μl of growth medium containing test active ingredient and incubated at 37° C. and 10% CO2. After 7 days, the cells were read at 540 nm using the Packard microplate reader. Cell viability was assessed using the MTT assay (Mosmann T. Rapid colorimetric assay for cellular growth and survival: application to proliferation and cytotoxicity assays. J Immunol Methods. 1983 Dec. 16; 65(1-2):55-63), which is used to determine the number of living cells in a sample.

[6] = tested on: facial pigmentation of patients with recalcitrant melasma; assay: Clinical study in patients with recalcitrant melasma; format: in vivo, human; details: peptide in liposomes at 1%
Excerpt: Patients with recalcitrant melasma (those that failed over the counter products, or HQ 4% for six months, or Tri-luma® Cream for six months) were randomized and blinded to two treatment groups (vehicle and peptide). Patients applied each product twice per day followed by a sunscreen with a sun protection factor of 30 Qam. Patients were then asked to rate the percentage improvement in their facial pigmentation using a nominal scale of 0-100, with 0 corresponding to no change and 100 corresponding to complete resolution. The results are shown in FIG. 3, in which the PLG-OH peptide is shown to be rated as 40-50% improvement, where vehicle caused no improvement. The peptide was formulated in liposomes at 1%, and the control was the liposomes alone.

Mushroom tyrosinase [7] = assay: Mushroom tyrosinase inhibition, colorimetric detection of dopachrome (IC50, kinetics); format: biochemical; details: L-tyrosine substrate, pH 6.8, 37° C., absorbance 475 nm at 30 min
Description: Mushroom tyrosinase, L-tyrosine and other chemicals for the enzymatic reaction were obtained from Sigma-Aldrich. […] It is understood that research grade reagents were used for convenience, and it is preferred that the peptides be prepared to pharmaceutical grade purity, greater than 90%, preferably greater than 99% pure. Inhibition of tyrosinase by experimental peptides was determined by calorimetric detection of dopachrome, the reaction product of the substrate L-tyrosine. Mushroom tyrosinase, L-tyrosine, and a potassium phosphate buffer (pH 6.8) were added to 96-well plates containing short sequence peptides dissolved in 5% DMSO and incubated at 37° C. The absorbance at 475 nm was measured using a BIO-TEK plate reader 30 min after reaction initiation. Each experiment was performed in triplicate on 3 separate occasions. The protocol is described in further detail in Piao et al., “Mushroom Tyrosinase Inhibition Activity of Some Chromones,” Chem. Pharm. Bull. 56(3): 309-311 (2002), and in Pomerants, J. Biol. Chem 238:2351-2357 (1963). Enzyme kinetics were calculated using the Michaelis-Menton equation by observing changes in reaction velocity accompanying substrate concentrations of 0.5, 1, 2, and 4 mM L-tyrosine. Once initial reaction velocities were obtained, Lineweaver-Burke plots were created to calculate Km, Vmax, and to determine the mode of enzymatic inhibition.

[8] = tested on: B16-F10 mouse melanoma cells; assay: B-16 pigmentation assay; format: cell-based; details: concentration tested 8 mM, 7 days
Description: as §2

[9] = Stability testing of 1% peptide solutions by HPLC/MS; details: 1% solution, sealed tube, ambient, HPLC or MS, 4 months
Description: A sixth peptide, VLLK (SEQ ID NO: 3), was used as inner standard for quantitative evaluation of other peptide stability.
HPLC/MS: A 1% solution was prepared for each peptide and sealed in a tube, which was kept in ambient environment. High Performance Liquid Chromatography (HPLC) and Mass Spectroscopy (MS) were tested periodically at an approximate time range of 30 days. A fresh 1% VLLK (SEQ ID NO: 3) solution used as inner standard was prepared on the same day of each test. The amount of each peptide was determined by its peak area relative to that of VLLK (SEQ ID NO: 3).

[10] = Solubility in tyrosinase assay buffer; format: physicochemical; details: 8 mM

Oc1ccc(O)cc1 [HQ, Hydroquinone]
melanin content (Human melanocytes): slightly reduced
inhibitory effects on melanocyte proliferation rates [1]: did not show inhibitory effects
reduction of cellular tyrosinase activity ([2]; 10 μM): 28.8%
IC50 (tyrosinase): ~700 µM
cell death [3]: 100%

O=c1cc(CO)occ1O [Kojic Acid, 5-hydroxy-2-(hydroxymethyl)-4-pyrone, reference compound]
% Tyrosinase inhibition (Mushroom tyrosinase [4]; concentration tested 0.25%): 94%

PLG-OH [tripeptide PLG with native amino and carboxy termini, distinguished from PLG-NH2]
cytotoxicity (printed in the % Depigmentation column) ([5]; concentration tested 3 mM): cyto-toxic
side effects (erythema, scaling, contact dermatitis reaction, comedone formation) ([6]; 4-month exposure): no side effects
percentage improvement in facial pigmentation ([6]; patient-rated scale 0-100, applied twice per day): 40-50%
% Tyrosinase inhibition (Mushroom tyrosinase [4]; concentration tested 3 mM): 6%
considered effective in these assays (Mushroom tyrosinase [4]): Neither SF peptide nor PLG was considered effective
IC50 (Mushroom tyrosinase [7]): 2730 µM

RADSRADC [RA peptide, RADSRADC]
Viability ([5]; 150, 300 and 450 uM): not significantly affected
reduction of cellular tyrosinase activity ([2]; 1 μM): 1.2%
reduction of cellular tyrosinase activity ([2]; 10 μM): 15.6%
reduction of cellular tyrosinase activity ([2]; 100 μM): 21.1%

SFLLRN [SF peptide]
% Depigmentation (B-16 Assay) [8]: 0%
considered effective in these assays (Mushroom tyrosinase [4]): Neither SF peptide nor PLG was considered effective
degradation [9]: did not show degradation
solubility in buffer [10]: ND (insoluble

VLLK [VL peptide, reference compound]
IC50 (result in words) (Mushroom tyrosinase [7]): no effect

Reference: patent US8026208B2, “Peptide tyrosinase inhibitors and uses thereof” (The Board of Trustees of the Leland Stanford Junior …, priority 2007, dated 2011)
